Measured values: PubChem BioAssay (NCI)
“And” between values parts separate entries of the source, which are not always exact repeats. Equal entries are not always repeated.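 96-well plates; 48 h exposure; 5 concentrations. Endpoints by linear interpolation between flanking doses. Not reached: highest tested concentration assigned. GI50: concentration for 50% inhibition of growth. The concentration for full growth arrest is given as TGI.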

Tests used:
Test in all cases: DTP human tumour cell line panel, 48 h
[1] = system: COLO 205 colon
[2] = system: A498 renal
[3] = system: MCF7 breast
[4] = system: SK-MEL-5 melanoma
[5] = system: OVCAR-3 ovarian
[6] = system: ACHN renal
[7] = system: NCI-H522 lung
[8] = system: A549 NSCLC
[9] = system: UO-31 renal
[10] = system: PC-3 prostate

| SMILES | GI50 [1] | TGI [1] [µM] | GI50 [2] | TGI [2] | GI50 [3] | TGI [3] [µM] | GI50 [4] [µM] | TGI [4] [µM] | GI50 [5] | TGI [5] [µM] | GI50 [6] [µM] | TGI [6] [µM] | GI50 [7] | TGI [7] [µM] | GI50 [8] | TGI [8] [µM] | GI50 [9] | TGI [9] [µM] | GI50 [10] | TGI [10] [µM] |
| --- | --- | --- | --- | --- | --- | --- | --- | --- | --- | --- | --- | --- | --- | --- | --- | --- | --- | --- | --- | --- |
| COc1ccc([C@@H]2[C@@H](Cl)C(=O)N2c2cc(OC)c(OC)c(OC)c2)cc1C | 0.0386 µM | 0.159 | 0.0335 µM | 0.314 µM | 0.0435 µM | > 100 | 0.0553 | 1.34 | 0.0241 µM | 0.0581 | 0.121 | 30.3 | 0.0224 µM | 0.0717 | 0.273 µM | > 100 | 0.172 µM | 47.6 | 0.0633 µM | > 100 |
| COc1cc([C@H]2OC[C@@H]3C(c4cc(OC)c5c(c4)OCO5)OC[C@H]23)cc(OC)c1OC (stereo partly specified) | – | > 100 | – | > 100 µM | – | > 100 | – | 44.9 | – | > 100 | – | > 100 | – | > 100 | – | > 100 | – | > 100 | – | > 100 |
| N#Cc1ccc2c(-c3ccnc(NC4CC4)n3)c(-c3ccc(F)cc3)nn2c1 | > 25 µM | > 25 | > 25 µM | > 25 µM | > 25 µM | > 25 | > 25 | > 25 | > 25 µM | > 25 | > 25 | > 25 | > 25 µM | > 25 | > 25 µM | > 25 | 6.78 µM | > 25 | > 25 µM | > 25 |
| Oc1ccccc1/C=N\NC(=S)Nc1ccc(F)cc1 | 4.8 µM | > 43 | 4.65 µM | 49.3 µM | 0.888 µM | > 100 | 1.15 | 7.15 | 0.41 µM | > 69 | 0.674 | > 100 | 2.16 µM | > 49.4 | 2.33 µM | > 100 | 0.472 µM | 4.97 | 7.81 µM | > 100 |
| COc1ccc(/C(=C(\c2ccccc2)[N+](=O)[O-])c2ccc(OCCN3CCCC3)cc2)cc1 | 1.46 µM | 3.14 | 2.19 µM | 10.9 µM | 0.194 µM | 3.63 | 1.54 | 2.92 | 3.93 µM | 16.2 | 6.32 | 18.6 | 2.46 µM | 9.62 | 4.68 µM | 17.3 | 1.12 µM | 4.2 | 4.53 µM | 16.6 |
| CO[C@H]1C[C@H](O[C@H]2CC[C@@]3(C)[C@H](CC[C@@H]4[C@@H]3CC[C@]3(C)[C@@H](C5=CC(=O)OC5)CC[C@]43O)C2)O[C@H](C)[C@H]1O | – | 0.235 | – | 0.0589 µM | – | 0.134 | – | 0.0469 | – | < 0.0194 | – | 0.0101 | – | 0.0197 | – | < 0.0118 | – | 0.0217 | – | 0.0212 |
| O=C1c2ccc3c4c(ccc(c24)C(=O)N1CCCCO)C(=O)N(CCCCO)C3=O | 0.888 µM | 2.5 | 1.12 µM | 2.87 µM | 1.43 µM | 3.84 | 0.388 | 1.48 | 0.408 µM | 2.31 | 0.92 | 5.18 | 1.55 µM | 5.73 | 1.93 µM | 6.65 | 1.87 µM | 7.65 | 3.1 µM | 30.1 |
| N#Cc1cnn(C(=O)c2nn(-c3ccc(Cl)cc3)cc2O)c1N | 0.619 µM | 2.13 | 0.174 µM | 0.626 µM | 0.373 µM | 10.5 | 0.464 | 2.51 | 0.545 µM | 8.44 | 0.322 | 12.5 | 0.173 µM | 1.47 | 0.201 µM | 16.5 | 0.292 µM | 5.81 | 0.322 µM | 7.28 |
| COC(=O)C(=O)C(C(=O)C(=O)Nc1cc(C)ccc1C)c1nc2ccccc2[nH]c1=O (stereo unspecified) | – | > 100 | – | > 100 µM | – | > 100 | – | > 100 | – | > 100 | – | > 100 | – | > 100 | – | > 100 | – | > 100 | – | > 100 |
| C=C(CN1CCN(c2cc(C(F)(F)F)cc(C(F)(F)F)c2)CC1)c1ccc(C(=O)Nc2ccccc2N)cc1 | 7.11 µM | 52.6 | 2.04 µM | 14.4 µM | 0.839 µM | 21.8 | 2.28 | 10.8 | 3.18 µM | 21.2 | 5.81 | > 100 | 5.21 µM | > 100 | 19 µM | > 100 | 5.57 µM | > 100 | 2.92 µM | 31 |
| CCc1ccc([OH2+])c(C(=O)[O-])c1.CCc1ccc([OH2+])c(C(=O)[O-])c1.CCc1ccc([OH2+])c(C(=O)[O-])c1.CCc1ccc([OH2+])c(C(=O)[O-])c1.[Cu+2].[Cu+2] | > 100 µM | > 100 | 21.2 µM | 40.5 µM | 35 µM | > 100 | 17.6 | 42.9 | 36.5 µM | > 100 | > 100 | > 100 | > 86 µM | > 100 | 38.6 µM | > 100 | > 100 µM | > 100 | > 70.5 µM | > 100 |
| NS(=O)(=O)c1cccc(Nc2cc(-c3ccc(F)cc3)[nH]n2)c1 | > 25 µM | > 25 | 18.4 µM | > 25 µM | 20.4 µM | > 25 | 24.5 | > 25 | 19.5 µM | > 25 | 13.2 | > 25 | > 25 µM | > 25 | > 24.1 µM | > 25 | 14.6 µM | > 25 | > 23.6 µM | > 25 |
| COc1cc(/C=N/NC(=O)c2cnn3c2NC(c2ccccc2)C3)ccc1OCc1ccccc1 (stereo unspecified) | 0.953 µM | 4.22 | 0.226 µM | 2.5 µM | 0.365 µM | 14.6 | 0.663 | 2.8 | 0.331 µM | 1.34 | 0.903 | 6.99 | 0.391 µM | 3.9 | 1.17 µM | 3.75 | 1.28 µM | 8.87 | 0.967 µM | 3.23 |
| CN(N=O)c1ccc(/C=C/c2ccnc3ccccc23)cc1 | – | > 100 | – | > 100 µM | – | > 100 | – | > 100 | – | > 100 | – | > 100 | – | > 100 | – | > 100 | – | > 100 | – | > 100 |
| O=C1OC(c2ccccc2)=N/C1=C\c1ccccc1 | > 100 µM and 37.2 µM | > 100 | – | > 100 µM | – | > 100 | – | > 100 | – | > 100 | – | > 100 | – | > 100 | – | > 100 | – | > 100 | – | > 100 |
| COc1cc(C(=O)/C=C/c2c[nH]c3ccccc23)cc(OC)c1OC | 0.0192 µM | 0.132 | < 0.0119 µM | 0.0414 µM | 0.0857 µM | 15 | < 0.0173 | 0.775 | < 0.012 µM | 0.0488 | 0.0509 | 16.7 | < 0.0107 µM | 0.0391 | 0.0339 µM | 24.2 | 0.0396 µM | 11.4 | < 0.0212 µM | 27.9 |
| CSc1ccc(-c2cn3ccsc3n2)cc1 | 14.4 µM | > 100 | 55.6 µM | > 100 µM | 1.33 µM | > 100 | 14.3 | 98.1 | > 28.6 µM | > 100 | 5.84 | > 100 | 11.1 µM | > 89.5 | 12.9 µM | > 100 | 7.95 µM | > 100 | 18.9 µM | > 100 |
| COc1oc(C2C/C(=C/C(C)=C/C(C)=C/C(C)=C/c3ccc([N+](=O)[O-])cc3)CO2)c(C)c(=O)c1C (stereo unspecified) | – | 24.6 | – | 47.4 µM | – | 19 | – | 3.61 | – | 54.9 | – | 6.58 | – | 15.5 | – | 68.3 | – | 27.5 | – | 18.4 |
| O=C(NOCCO)c1ccc2cncn2c1Nc1ccc(I)cc1F | 0.00235 µM and < 0.01 µM | 0.803 | 0.00606 µM and < 0.01 µM | 0.0542 µM and 0.043 µM | > 10 µM and 26.2 µM | > 100 | 3.94 | > 100 | > 10 µM and 32.7 µM | > 100 | 0.3 | > 100 | > 3.69 µM and 16.9 µM | > 100 | 0.143 µM and 0.132 µM | > 100 | 0.0596 µM and 0.0455 µM | > 100 | > 10 µM and 45.4 µM | > 100 |
| CC1=C(C(=S)Nc2ccc(Cl)c(C(=O)OC(C)C)c2)SCCO1 | – | 37.4 | – | 30.7 µM | – | > 100 | – | 30.8 | – | 52.7 | – | 85.9 | – | 44.3 | – | 84.1 | – | 32.8 | – | 46.4 |
| COc1ccc(/C=C\c2cc(OC)c(OC)c(OC)c2)cc1NC(=O)/C=C/c1cc(OC)c(OC)c(OC)c1 | 4.41 µM | 18.5 | 0.949 µM | > 100 µM | 2.92 µM | > 100 | 2.21 | 6.73 | 5.62 µM | > 100 | 6.76 | > 100 | 2.51 µM | > 100 | 3.82 µM | > 100 | 2.64 µM | > 100 | 3.09 µM | > 100 |
| CNC(=O)c1sc(-n2cnc3cc(OC)c(OC)cc32)cc1OCc1ccccc1C(F)(F)F | > 25 µM | > 25 | 1.39 µM | > 24 µM | > 25 µM | > 25 | > 25 | > 25 | > 25 µM | > 25 | > 25 | > 25 | > 25 µM | > 25 | > 25 µM | > 25 | 12 µM | > 25 | > 25 µM | > 25 |
| COc1cc(/C=N\Nc2ccccc2)ccc1OC(=O)c1ccccc1 | 6.48 µM | 25.5 | 20 µM | > 92.9 µM | 1.57 µM | 23.7 | 1.53 | 18.9 | 4.19 µM | > 68.9 | 0.675 | > 100 | 1.02 µM | > 76.6 | 4.01 µM | 37.5 | 0.792 µM | > 40.2 | 0.921 µM | 22.7 |
| Nc1nc(SCC#CCCl)c2[nH]cnc2n1 | 4.4 µM | 14.9 | 1.64 µM | 6.87 µM | 4.12 µM | 16.3 | 3.11 | 12.6 | 3.27 µM | 10.9 | 3.7 | 15 | 1.47 µM | 2.95 | 7.04 µM | 19.8 | 2.39 µM | 11.5 | 14.6 µM | 75.8 |
| Cc1cnc(C(=O)Nc2nc3ccc(S(=O)(=O)Nc4ccc(C(C)(C)C)cc4)cc3[nH]2)cn1 | 0.503 µM | 7.74 | 0.288 µM | 1.31 µM | 0.338 µM | 11.3 | 0.33 | 7.09 | 0.308 µM | 1.32 | 0.518 | 14.2 | 0.356 µM | 8.9 | 0.652 µM | 9.14 | 0.583 µM | 19.4 | 0.402 µM | 8.31 |
| CN1CCN(Cc2ccc(NC(=O)c3cncc(C#Cc4c(N)ncc5ccccc45)c3)cc2C(F)(F)F)CC1 | 0.213 µM | 0.812 | 0.676 µM | 1.35 µM | 0.198 µM | 0.853 | 0.719 | 1.38 | 0.817 µM | 1.53 | 0.569 | 1.17 | 0.681 µM | 1.53 | 0.668 µM | 1.45 | 0.541 µM | 1.16 | 0.687 µM | 1.73 |
